Test results as given in BindingDB's records for patent US20250313563 (The Broad Institute, 2025).
pIC50: −log10 of the molar value. Where “and” joins values, the source holds several entries; their conditions need not be identical. Equal entries are not always repeated.

Key:
[1] = target: Glycogen synthase kinase-3 alpha (Homo sapiens, UniProt P49840); assay: TR-FRET Assay
Outline: (§1)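 Kinase activity, measured after a 30-minute compound preincubation, was stopped with EDTA and quantified by TR-FRET using a Tb-labelled pSer641 antibody paired with streptavidin-d2.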

[2] = target: Glycogen synthase kinase-3 beta (Homo sapiens, UniProt P49841); assay: TR-FRET Assay
Outline: as §1

Chain of Glycogen synthase kinase-3 beta (P49841 whole entry): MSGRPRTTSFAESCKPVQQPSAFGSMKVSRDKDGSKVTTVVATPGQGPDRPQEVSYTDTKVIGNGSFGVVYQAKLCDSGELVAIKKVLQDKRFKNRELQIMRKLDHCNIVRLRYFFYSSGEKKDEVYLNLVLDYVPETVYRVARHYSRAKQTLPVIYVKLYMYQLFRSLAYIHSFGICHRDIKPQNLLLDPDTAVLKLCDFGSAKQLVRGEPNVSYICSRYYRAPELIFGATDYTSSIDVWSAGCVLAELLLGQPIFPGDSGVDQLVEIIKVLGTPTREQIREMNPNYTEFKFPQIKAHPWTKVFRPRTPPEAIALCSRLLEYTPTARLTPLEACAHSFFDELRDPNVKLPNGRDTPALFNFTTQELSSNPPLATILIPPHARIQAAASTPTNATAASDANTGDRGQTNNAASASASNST
Chain of Glycogen synthase kinase-3 alpha (P49840 whole entry): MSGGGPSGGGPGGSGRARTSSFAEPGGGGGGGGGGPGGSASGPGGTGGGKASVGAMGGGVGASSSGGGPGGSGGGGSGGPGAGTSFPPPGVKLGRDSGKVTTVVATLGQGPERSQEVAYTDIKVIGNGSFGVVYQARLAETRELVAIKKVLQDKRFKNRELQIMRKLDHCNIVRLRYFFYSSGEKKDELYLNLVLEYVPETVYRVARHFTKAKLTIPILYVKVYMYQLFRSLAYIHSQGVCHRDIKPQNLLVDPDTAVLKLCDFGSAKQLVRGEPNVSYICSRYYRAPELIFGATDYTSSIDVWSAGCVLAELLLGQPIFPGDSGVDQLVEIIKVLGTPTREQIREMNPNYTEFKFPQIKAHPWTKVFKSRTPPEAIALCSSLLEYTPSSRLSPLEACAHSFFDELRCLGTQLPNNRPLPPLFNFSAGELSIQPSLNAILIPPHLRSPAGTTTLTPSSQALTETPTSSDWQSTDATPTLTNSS

Compound	pIC50 [1]	pIC50 [2]
CC[C@@]1(c2cccc(C(F)(F)F)c2)C2=C(N=NC2)NC2=C1C(=O)N(Cc1ccccc1)[C@@H]2C [US20250313563, Compound 930332]	5.30 to 6.00	< 5.30
CCC1(c2cccc(-c3ccncc3F)c2)C2=C(CC(C)(C)NC2=O)NC2N=NC(C(F)(F)F)=C21 (stereo not drawn) [US20250313563, Compound 947866]	> 7.00	> 7.00
CC(C)S(=O)(=O)N1CCC2(CC1)C1=C(N=NC1)NC1=C2C(=O)CC(C)(C)C1 [US20250313563, Compound 913129]	> 7.00	> 7.00 and 6.00 to 7.00
CCC1(c2cccc(Nc3ncccn3)c2)C2=CN=NC2NC2=C1C(=O)CC(C)(C)C2 (stereo not drawn) [US20250313563, Compound 913334]	> 7.00	6.00 to 7.00
CC1(C)CC(=O)C2=C(C1)NC1=C(CN=N1)[C@@]21CC[C@@H](C(F)(F)F)C1 [US20250313563, Compound 952436]	> 7.00 and 5.30 to 6.00	> 7.00 and 5.30 to 6.00
CCC1(c2cccc(C(F)F)c2)C2=CN=NC2NC2=C1C(=O)CC(C)(C)C2 (stereo not drawn) [US20250313563, Compound 819564]	> 7.00	> 7.00
O=C1C2=C(NC3N=NC=C3C23CCOCC3)[C@@H]2CC[C@H]1C2 (stereo partly drawn) [US20250313563, Compound 912081]	6.00 to 7.00	5.30 to 6.00
CC[C@@]1(c2cccc(C(F)(F)F)c2)C2=CN=NC2NC2=C1C(=O)N(CCOC)CC2 (stereo partly drawn) [US20250313563, Compound 949600]	< 5.30	< 5.30
CC1(C)CC(=O)C2=C(C1)NC1=C(CN=N1)C21CCc2c(Cl)cccc21 (stereo not drawn) [US20250313563, Compound 816795]	> 7.00	6.00 to 7.00
CC[C@@]1(c2cccc(-c3ccnc(CCO)c3)c2)C2=CN=NC2NC2=C1C(=O)CC(C)(C)C2 (stereo partly drawn) [US20250313563, Compound 947810]	> 7.00	6.00 to 7.00
CC[C@@]1(c2cccc(-c3cc(C4CCCC4)nn3C)c2)C2=CN=NC2NC2=C1C(=O)NC(C)(C)C2 (stereo partly drawn) [US20250313563, Compound 952023]	6.00 to 7.00	5.30 to 6.00
CC[C@@]1(c2cccc(N3CCC3(C)C)c2)C2=CN=NC2NC2=C1C(=O)CC(C)(C)C2 (stereo partly drawn) [US20250313563, Compound 913141]	6.00 to 7.00	5.30 to 6.00
CC1(C)CC(=O)C2=C(C1)NC1=C(CN=N1)[C@]21COC2(CN(S(C)(=O)=O)C2)C1 [US20250313563, Compound 926823]	6.00 to 7.00	5.30 to 6.00
CCC1(c2cccc(-c3cnn(C)c3C)c2)C2=C(CC(C)(C)CC2=O)NC2N=NC(C)=C21 (stereo not drawn) [US20250313563, Compound 883993]	> 7.00	> 7.00
CCC1(c2cccc(Oc3ncccn3)c2)C2=C(CC(C)(C)NC2=O)NC2N=NC(C(F)(F)F)=C21 (stereo not drawn) [US20250313563, Compound 950323]	> 7.00	> 7.00
CC[C@@]1(c2ccccc2)C2=CN=NC2NC2=C1C(=O)[C@@H](F)C(C)(C)C2 (stereo partly drawn) [US20250313563, Compound 826767]	< 5.30	< 5.30
CC[C@]1(c2cccc(C(F)(F)F)c2)C2=CN=NC2NC2=C1C(=O)N(C)C[C@H]2C (stereo partly drawn) [US20250313563, Compound 883980]	> 7.00 and 6.00 to 7.00	> 7.00 and 5.30 to 6.00
C[C@H]1C[C@]2(CCO1)C1=C(N=NC1)NC1=C2C(=O)CC(C)(C)C1 [US20250313563, Compound 899560]	6.00 to 7.00	5.30 to 6.00
CC[C@@]1(c2ccccc2)C2=CN=NC2NC2=C1C(=O)CC(C)(C)[C@@H]2F (stereo partly drawn) [US20250313563, Compound 957199]	< 5.30	< 5.30
CC[C@@]1(c2cccc(N(C)c3ccc(C(F)(F)F)nc3)c2)C2=CN=NC2NC2=C1C(=O)CC(C)(C)C2 (stereo partly drawn) [US20250313563, Compound 945474]	> 7.00	6.00 to 7.00

Compound	pIC50 [1]	pIC50 [2]
CC[C@@]1(c2cccc(-c3cc(OC)ncc3F)c2)C2=CN=NC2NC2=C1C(=O)NC(C)(C)C2 (stereo partly drawn) [US20250313563, Compound 949109]	> 7.00	6.00 to 7.00
CCC1(c2cccc(Br)c2)C2=CN=NC2NC2=C1C(=O)NC(C)C2 (stereo not drawn) [US20250313563, Compound 913225]	6.00 to 7.00	5.30 to 6.00
CCC1(c2cccc(-c3cnn4c3CCCC4)c2)C2=C(CC(C)(C)CC2=O)NC2N=NC(C)=C21 (stereo not drawn) [US20250313563, Compound 884002]	> 7.00	> 7.00
CCC1(c2cccc(N(C)C(=O)c3ccn(C)n3)c2)C2=CN=NC2NC2=C1C(=O)CC(C)(C)C2 (stereo not drawn) [US20250313563, Compound 917130]	> 7.00	6.00 to 7.00
CC[C@@]1(c2cccc(-c3cn(C)nc3C)c2)C2=C(CC(C)(C)NC2=O)NC2N=NC(F)=C21 (stereo partly drawn) [US20250313563, Compound 949185]	> 7.00	> 7.00 and 5.30 to 6.00
CC[C@]1(c2cccc(-c3ccnnc3)c2)C2=CN=NC2NC2=C1C(=O)CC(C)(C)C2 (stereo partly drawn) [US20250313563, Compound 929443]	< 5.30	< 5.30
CCn1nc(C)cc1S(=O)(=O)N1CCC2(CC1)C1=CN=NC1NC1=C2C(=O)CC(C)(C)C1 (stereo not drawn) [US20250313563, Compound 947609]	> 7.00	6.00 to 7.00
CC[C@]1(c2cccc(-c3cnn(C)c3)c2)C2=C(CC(C)(C)CC2=O)NC2N=NC(C(F)(F)F)=C21 (stereo partly drawn) [US20250313563, Compound 811565]	> 7.00	> 7.00
CC[C@@]1(c2cccc(-c3cc(C)nn3C)c2)C2=CN=NC2NC2=C1C(=O)CC(C)(C)[C@H]2F (stereo partly drawn) [US20250313563, Compound 947656]	6.00 to 7.00	< 5.30
CC1(C)CC2=C(C(=O)[C@@H]1F)C1(CCOCC1)C1=C(N=NC1)N2 [US20250313563, Compound 883835]	6.00 to 7.00	6.00 to 7.00
CC[C@]1(c2cccc(-c3cc(C4CCCC4)nn3C)c2)C2=CN=NC2NC2=C1C(=O)NC(C)(C)C2 (stereo partly drawn) [US20250313563, Compound 949509]	< 5.30	< 5.30
CC[C@]1(c2cccc(-c3cn(C)nc3C)c2)C2=C(CC(C)(C)NC2=O)NC2N=NC(C(F)F)=C21 (stereo partly drawn) [US20250313563, Compound 950490]	6.00 to 7.00	6.00 to 7.00
CC[C@@]1(c2cccc(C(C)C)c2)C2=C(CC(C)(C)NC2=O)NC2N=NC(C(F)(F)F)=C21 (stereo partly drawn) [US20250313563, Compound 950494]	> 7.00	> 7.00 and 6.00 to 7.00
CC[C@]1(c2cccc(-c3ccncc3F)c2)C2=C(CC(C)(C)NC2=O)NC2N=NC(F)=C21 (stereo partly drawn) [US20250313563, Compound 949643]	< 5.30	< 5.30
CCC1(c2cccc(C(F)(F)F)c2)C2=CN=NC2NC2=C1C(=O)N(c1nn(C)cc1C)CC2 (stereo not drawn) [US20250313563, Compound 950486]	6.00 to 7.00	5.30 to 6.00
CCC1(c2cccc(N3CCOCC3)c2)C2=CN=NC2NC2=C1C(=O)CC(C)(C)C2 (stereo not drawn) [US20250313563, Compound 801318]	6.00 to 7.00	< 5.78
CC1(C)CC(=O)C2=C(C1)NC1N=NC(CCC(F)(F)F)=C1[C@]21CCc2c(F)cccc21 (stereo partly drawn) [US20250313563, Compound 874324]	6.00 to 7.00	6.00 to 7.00
CCC1(c2cccc(N(C)c3ccncc3)c2)C2=CN=NC2NC2=C1C(=O)CC(C)(C)C2 (stereo not drawn) [US20250313563, Compound 853910]	6.00 to 7.00	5.30 to 6.00
CC[C@@]1(c2cccc(-c3ccncc3)c2)C2=CN=NC2NC2=C1C(=O)CC(C)(C)[C@H]2F (stereo partly drawn) [US20250313563, Compound 959343]	> 7.00 and 6.00 to 7.00	> 7.00 and 5.30 to 6.00
